The source of these data is ChEMBL document CHEMBL4613208, “Isatin derivatives and their anti-bacterial activities” (Eur J Med Chem, 2019).

Data set [1] concerns Staphylococcus aureus. Description: Antibacterial activity against Staphylococcus aureus assessed as zone of inhibition at 20 mg/ml. The following applies: read-out: IZ. The class given is functional.
Data set [2] has as its system Pseudomonas aeruginosa. As to the kind of experiment: Antibacterial activity against Pseudomonas aeruginosa assessed as zone of inhibition at 20 mg/ml. The class given is functional. The following applies: read-out: IZ.
Data set [3] has as its system Escherichia coli. As to the kind of experiment: Antibacterial activity against Escherichia coli assessed as zone of inhibition at 20 mg/ml. The format is functional. The conditions noted are these: read-out: IZ.
The test system of data set [4] is Bacillus subtilis. Description: Antibacterial activity against Bacillus subtilis assessed as zone of inhibition at 20 mg/ml. The class given is functional. The conditions noted are these: read-out: IZ.
The subject of another data set is Bacillus cereus. Description: Antibacterial activity against Bacillus cereus after 24 hrs by agar well diffusion technique. The format is functional. On the technique in general: In agar diffusion tests the substance spreads into inoculated agar from a disc or well.
In another data set the test system is Shigella dysenteriae. Description: Antibacterial activity against Shigella dysenteriae after 24 hrs by agar well diffusion technique. The class given is functional.
The subject of data set [5] is Staphylococcus aureus. As to the kind of experiment: Antibacterial activity against Staphylococcus aureus ATCC 25923 after 24 hrs by agar well diffusion technique. The class given is functional. The following applies: ATCC 25923, 24 h.
The subject of data set [6] is Escherichia coli. As to the kind of experiment: Antibacterial activity against Escherichia coli ATCC 25922 after 24 hrs by agar well diffusion technique. The following applies: ATCC 25922, 24 h. The class given is functional.
Data set [7] concerns Escherichia coli. As to the kind of experiment: In vivo antibacterial activity against Escherichia coli infected in po dosed mouse. The class given is functional.
Data set [8] concerns Escherichia coli. Description: Antibacterial activity against Escherichia coli by two-fold serial dilution technique. The class given is functional.
The subject of data set [9] is Staphylococcus aureus. As to the kind of experiment: Antibacterial activity against Staphylococcus aureus by two-fold serial dilution technique. The format is functional.
The test system of data set [10] is Pseudomonas aeruginosa. As to the kind of experiment: Antibacterial activity against Pseudomonas aeruginosa by two-fold serial dilution technique. The format is functional.
Data set [11] concerns Bacillus subtilis. As to the kind of experiment: Antibacterial activity against Bacillus subtilis by two-fold serial dilution technique. The format is functional.
For data set [12], the system named is Staphylococcus aureus. As to the kind of experiment: Antibacterial activity against Staphylococcus aureus. The format is functional, organism-based.
The next data set deals with Bacillus pumilus. Description: Antibacterial activity against Bacillus pumilus. The class given is functional.
In data set [13] the test system is Pseudomonas aeruginosa. Description: Antibacterial activity against Pseudomonas aeruginosa. The class given is functional, organism-based.
The subject of data set [14] is Staphylococcus epidermidis. Description: Antibacterial activity against Staphylococcus epidermidis. The format is functional.
The test system of another data set is Priestia megaterium. Description: Antibacterial activity against Bacillus megaterium. The class given is functional.
The subject of the next data set is Salmonella typhi. As to the kind of experiment: Antibacterial activity against Salmonella typhi. The format is functional, Salmonella enterica subsp. enterica serovar Typhi. The following applies: Salmonella enterica.
In another data set the test system is Shigella flexneri. Description: Antibacterial activity against Shigella flexneri. The format is functional.
The next data set relates to Citrobacter freundii. Description: Antibacterial activity against Citrobacter freundii. The format is functional.
Data set [15] deals with Escherichia coli. Description: Antibacterial activity against Escherichia coli. The class given is functional, organism-based.
In a further data set the test system is Vibrio cholerae. Description: Antibacterial activity against Vibrio cholerae. The class given is functional.
In the next data set the test system is Klebsiella pneumoniae. Description: Antibacterial activity against Klebsiella pneumoniae. The class given is functional.
Data set [16] can be described thus: Toxicity in po dosed mouse. The format is organism-based. The conditions noted are these: in vivo.
Data set [17] deals with Escherichia coli. Description: Potency index, ratio of ED50 for norfloxacin to ED50 for test compound for in vivo antibacterial activity against Escherichia coli infected in po dosed mouse. The class given is functional.
The test system of data set [18] is Escherichia coli. Description: Antibacterial activity against Escherichia coli NCTC 10418. The format is functional.

Each structure is given as a SMILES string. In brackets after ≈: the same amount, converted by molar mass.

By MIC is commonly meant the smallest concentration in the dilution series that meets the test's criterion for growth inhibition. A higher MIC goes with a less susceptible organism. A word on the ED50: it is the midpoint of the dose-response relation. Low readings indicate an effect at a small dose, high ones a need for a large dose. The term LD50 denotes the dose expected to kill half of the subjects tested.

As for `CCOC(=O)CN1C(=O)/C(=C2\SC(=S)N(CC(=O)N(c3oc(NC(C)(C)C)c(C(=O)OC)c3C(=O)OC)C(C)(C)C)C2=O)c2cc(Cl)ccc21`, the zone of inhibition at 20000 µg/mL in the data set on Staphylococcus aureus [1], in the data set on Pseudomonas aeruginosa [2], in the data set on Escherichia coli [3] and with Bacillus subtilis [4] was 15.6 to 26 mm in each case.
Take `Cc1cc(NS(=O)(=O)c2ccc(/N=C3\C(=O)Nc4ccc(Cl)cc43)cc2)no1`: the MIC with Bacillus cereus, against Shigella dysenteriae, in the data set with Staphylococcus aureus [5] and in the data set on Escherichia coli [6] was 1 to 15 µg/mL (≈ 2.4 to 36 µM) throughout.
On to `CCn1cc(C(=O)O)c(=O)c2cc(F)c(N3CCNCC3)cc21` [NORFLOXACIN], for which the ED50 in the data set on Escherichia coli [7] worked out at 6 mg/kg.
Regarding `Cc1ccc2c(c1)/C(=N/NC(=O)N/N=C1\C(=O)Nc3ccc(C)cc31)C(=O)N2`, the MIC in the data set with Escherichia coli [8], against Staphylococcus aureus [9], with Pseudomonas aeruginosa [10] and in the data set with Bacillus subtilis [11] was 6.25 to 100 µg/mL (≈ 16.6 to 266 µM) each time.
`COc1cc(/C=N/N2C(N)=NNC23C(=O)Nc2ccc(C)cc23)ccc1O` (stereo not given): the MIC with Bacillus cereus, against Shigella dysenteriae, in the data set with Staphylococcus aureus [5] and against Escherichia coli [6] was 1 to 15 µg/mL (≈ 2.73 to 40.9 µM) throughout.
As for `Cc1ccc2c(c1)/C(=N/c1nc3ccccc3[nH]1)C(=O)N2`, the MIC in the data set on Bacillus cereus, with Shigella dysenteriae, with Staphylococcus aureus [5] and in the data set with Escherichia coli [6] was 1 to 15 µg/mL (≈ 3.62 to 54.3 µM) in each case.
In the case of `CC(C)(C)Nc1oc(N(C(=O)CN2C(=O)C(=O)c3ccccc32)C(C)(C)C)c(C(=O)OC(C)(C)C)c1C(=O)OC(C)(C)C`, the zone of inhibition at 20000 µg/mL with Staphylococcus aureus [1], in the data set on Pseudomonas aeruginosa [2], in the data set on Escherichia coli [3] and in the data set with Bacillus subtilis [4] was 15.6 to 26 mm each time.
For `COC(=O)c1c(NC(C)(C)C)oc(N(C(=O)CN2C(=O)/C(=C3/C(=O)N(CC(=O)N(c4oc(NC(C)(C)C)c(C(=O)OC(C)(C)C)c4C(=O)OC(C)(C)C)C(C)(C)C)c4ccccc43)SC2=S)C(C)(C)C)c1C(=O)OC`, the zone of inhibition at 20000 µg/mL in the data set with Staphylococcus aureus [1], in the data set on Pseudomonas aeruginosa [2], in the data set with Escherichia coli [3] and in the data set with Bacillus subtilis [4] was 15.6 to 26 mm in each case.
Turning to `CCOC(=O)c1c(NC(C)(C)C)oc(N(C(=O)CN2C(=O)/C(=C3/C(=O)N(CO)c4ccccc43)SC2=S)C(C)(C)C)c1C(=O)OCC`, the zone of inhibition at 20000 µg/mL in the data set with Staphylococcus aureus [1], in the data set on Pseudomonas aeruginosa [2], in the data set with Escherichia coli [3] and in the data set on Bacillus subtilis [4] was 15.6 to 26 mm in each case.
In the case of `CC(=O)NC[C@H]1CN(c2ccc(N3CCOCC3)c(F)c2)C(=O)O1` [LINEZOLID], the minimal inhibitory concentration (MIC) (against Staphylococcus aureus [12]; in the data set on Bacillus pumilus; against Pseudomonas aeruginosa [13]; in data set [14]; in the data set with Priestia megaterium) was 4 to 8 µg/mL (≈ 11.9 to 23.7 µM) in each case.
For the molecule `O=C1C(=O)N(CN2CCN(c3cc4c(cc3F)c(=O)c(C(=O)O)cn4C3CC3)CC2)c2ccccc21`, the MIC (in the data set on Staphylococcus aureus [12]; in the data set with Salmonella typhi; against Pseudomonas aeruginosa [13]; with Shigella flexneri; in data set [14]; with Citrobacter freundii) was 0.1 to 0.5 µg/mL (≈ 0.204 to 1.02 µM) in each case. Besides, the MIC against Escherichia coli [15], against Vibrio cholerae and in the data set on Klebsiella pneumoniae was 0.1 to 0.5 µg/mL (≈ 0.204 to 1.02 µM) in each case.
As to `O=C(N/N=C1\C(=O)N(Cc2ccccc2)c2ccccc21)N/N=C1\C(=O)N(Cc2ccccc2)c2ccccc21`, the MIC against Escherichia coli [8], in the data set on Staphylococcus aureus [9], against Pseudomonas aeruginosa [10] and against Bacillus subtilis [11] was 6.25 to 100 µg/mL (≈ 11.8 to 189 µM) each time.
In data set [16], `CCn1cc(C(=O)O)c(=O)c2cc(F)c(N3CCN(CN4C(=O)/C(=N\c5ccc(S(=O)(=O)Nc6ncnc(OC)c6OC)cc5)c5ccccc54)CC3)cc21` yielded an LD50 greater than 4000 mg/kg. This molecule also showed an ED50 in the data set with Escherichia coli [7] of 1.25 mg/kg. Besides, the “Ratio ED50” value with Escherichia coli [17] is greater than 3.7. This molecule displayed an MIC with Escherichia coli [18] of less than 1 µg/mL.
